Source: patent US20240269139A1, “COMPOUNDS FOR TARGETED PROTEIN DEGRADATION OF KINASES” (DANA-FARBER CANCER INSTITUTE, INC., priority 2020, published 2024)
Entries after “also recorded” stand apart in the source; their conditions may differ.

Tested on: protein kinases (human kinome)
Assay type: cell-based
Settings: for kinases the bifunctional compound degrades: as stated for the structure in the embodiments; for Kinase hits: kinases significantly downregulated vs DMSO (fold change cutoff −1.25, P-value<0.01), ≤8 h, 0.1-5 μM degrader, 7 cell lines; for Total no. kinase hits: number of degraded kinases per library compound
Excerpt: Although development of targeted protein degraders requires a POI binder, among already-liganded proteins such as kinases, it was hypothesized that different targets would have a different propensity for current approaches to degrader-mediated destruction, which was termed ‘degradability’. […] It was rationalized that the probability of identifying the same kinase as a false positive in multiple treatments is low, therefore this analysis served to also assess the robustness of our data and subsequent interpretations. […] Overall, 62 protein kinases were degraded in more than 10 independent treatments, and remarkably, 9 of these (CDK4, AURKA, FER, WEE1, BLK. LIMK2, CDK6, GAK, LIMK1) were each degraded in at least 40 of the 154 independent treatments, emphasizing their predisposition to induced degradation (FIG. 1G; Appendix I).
Next, the frequency of degradation assessment was corrected for over-representation of molecules in the full dataset by omitting replicate profiling of compounds under different experimental conditions, to remove any bias. […] Unsurprisingly, the top degradable kinases mirror those from the previous analysis (CDK4, AURKA, FER, WEE1, BLK), confirming that in sufficiently large datasets, even with over-representation of certain molecules, frequency of degradation is a good measure of general tractability.

Structure (SMILES)	kinases the bifunctional compound degrades	Kinase hits	Total no. kinase hits
CNC(=O)c1ccccc1Nc1cc(Nc2ccc(N3CCN(CCCCCCCCNc4cccc5c4C(=O)N(C4CCC(=O)NC4=O)C5=O)CC3)cc2OC)ncc1C(F)(F)F (stereo not drawn) [MFH-5-116-1]	AURKA, NUAK1, PTK2B, RPS6KA1, RPS6KA3, STK33, and WEE1	AURKA, NUAK1, PTK2B, KPS6KA1, RPS6KA3, STK33, WEE1	7
O=C1CCC(N2C(=O)c3cccc(NCCCCCCCCN4CCC(NC(=O)c5[nH]ncc5NC(=O)c5c(Cl)cccc5Cl)CC4)c3C2=O)C(=O)N1 (stereo not drawn) [MFH-5-126-1]	AURKA, BUB1, BUB1B, CDK13, CDK14, CDK17, CDK4, CDK9, CHEK1, CLK1, CSNK1A1, CSNK1D, DAPK1, ERN1, GSK3A, GSK3B, MAP3K1, NUAK1, PIK3CG, PIM2, PLK1, RIOK2, STK17A, STK7B, TTK, UHMK1, and WEE1	AURKA, BUB1, BUB1B, CDK13, CDK14, CDK17, CDK4, CDK9, CHEK1, CLK1, CSNK1A1, CSNK1D, DAPK1, ERN1, GSK3A, GSK3B, MAP3K1, NUAK1, PIK3CG, PIM2, PLK1, RIOK2, STK17A, STK17B, TTK, UHMK1, WEE1	27
Nc1ncnc2c1c(-c1ccc(Oc3ccccc3)cc1)nn2[C@H]1CC[C@H](N2CCN(CCOCCNC(=O)CNc3cccc4c3C(=O)N(C3CCC(=O)NC3=O)C4=O)CC2)CC1 (stereo partly drawn) [SB1-G-181]		ABL1, ABL2, AURKA, BLK, CSK, CSNK1E, FYN, LATS1, LCK, LIMK1, MAP2K5, SRC	12
Cn1c(=O)c(-c2c(Cl)cccc2Cl)cc2cnc(Nc3ccc(OCCNC(=O)CCCCCCNC(=O)COc4cccc5c4C(=O)N(C4CCC(=O)NC4=O)C5=O)cc3)nc21 (stereo not drawn) [SB1-G-192-1, N-(2-(4-((6-(2,6-dichlorophenyl)-8-methyl-7-oxo-7,8-dihydropyrido[2,3-d]pyrimidin-2-yl)amino)phenoxy)ethyl)-7-(2-((2-(2,6-dioxopiperidin-3-yl)-1,3-dioxoisoindolin-4-1413 yl)oxy)acetamido)heptanamide]	ABL1, ABL2, AURKA, BLK, CSK, EPHA3, EPHB6, FYN, GAK, LCK. LIMK2, MAPK14, NLK, PDK1, PKMYT1, SIK2, SRC, TNK2, WEE1, and YES1	ABL1, ABL2, AURKA, BLK, CSK, EPHA3, EPHB6, FYN, GAK, LCK, LIMK2, MAPK14, NLK, PDK1, PKMYT1, SIK2, SRC, TNK2, WEE1, YES1	20
O=C(CCCCCCNC(=O)COc1cccc2c1C(=O)N(C1CCC(=O)NC1=O)C2=O)NCCOc1ccc(Nc2ncc3ccc(=O)n(C4CC5CCC4C5)c3n2)cc1 (stereo not drawn) [SB1-G-194]	AAK1, AURKA, AURKB, CDK6, CDK9, FGR2, STK17A, and TTK	AAK1, AURKA, AURKB, CDK6, CDK9, FGR2, STK17A, TTK	8
Nc1ncnc2c1c(-c1ccc(Oc3ccccc3)cc1)nn2[C@H]1CC[C@H](N2CCN(CCCCCCNC(=O)COc3cccc4c3C(=O)N(C3CCC(=O)NC3=O)C4=O)CC2)CC1 (stereo partly drawn) [SB1-G-200]	ABL1, ABL2, BLK, CSNK1E. CSK, FYN, LATS1, LCK, LIMK1, MAP2K5, and SRC	ABL1, ABL2, BLK, CSNK1E, CSK, FYN, LATS1, LCK, LIMK1, MAP2K5, SRC	11
CC(C)S(=O)(=O)c1ccccc1Nc1nc(Nc2ccc(N3CCN(CCOCCOCCOCCNC(=O)CNc4cccc5c4C(=O)N(C4CCC(=O)NC4=O)C5=O)CC3)cc2)ncc1Cl (stereo not drawn) [SK-3-87, N-(2-(2-(2-(2-(4-(4-((5-chloro-4-((2-(isopropylsulfonyl)phenyl)amino)pyrimidin-2-yl)amino)phenyl)piperazin-1-yl)ethoxy)ethoxy)ethoxy)ethyl)-2-((2-(2,6-dioxopiperidin-3-yl)-1,3-dioxoisoindolin-4-yl)amino)acetamide]	AAK1, AURKA, BLK, CDK12, CDK17, CDK2, CDK5, CDK7, CDK9, FER, ITK, LCK, LIMK2, PTK2B, and WEE1	AAK1, AURKA, BLK, CDK12, CDK17, CDK2, CDK5, CDK7, CDK9, FER, ITK, LCK, LIMK2, PTK2B, WEE1	15
CC(C)S(=O)(=O)c1ccccc1Nc1nc(Nc2ccc(N3CCN(CCOCCOCCOCCNC(=O)CNc4ccc5c(c4)C(=O)N(C4CCC(=O)NC4=O)C5=O)CC3)cc2)ncc1Cl (stereo not drawn) [SK-3-89]	AAK1, AURKA, BLK, CDK12, CDK17, CDK2, CDK4, CDK5, CDK6, CDK7, CDK9, FER, ITK, LCK, LIMK2, PTK2B, STK10, and WEE1	AAK1, AURKA, BLK, CDK12, CDK17, CDK2, CDK4, CDK5, CDK6, CDK7, CDK9, FER, ITK, LCK, LIMK2, PTK2B, STK10, WEE1	18
CC(C)S(=O)(=O)c1ccccc1Nc1nc(Nc2ccc(N3CCN(CCOCCNC(=O)CNc4ccc5c(c4)C(=O)N(C4CCC(=O)NC4=O)C5=O)CC3)cc2)ncc1Cl (stereo not drawn) [SK-3-93]	AAK1, ABL2, AURKA, BLK, BMP2K, CDK12, CDK13, CDK17, CDK2, CDK4, CDK5, CDK6, CDK7, CDK9, FER, GAK, ITK. LCK, LIMK2. PRKAA1, PTK2B, RPS6KA1, SRC, and WEE1	AAK1, ABL2, AURKA, BLK, BMP2K, CDK12, CDK13, CDK17, CDK2, CDK4, CDK5, CDK6, CDK7, CDK9, FER, GAK, ITK, LCK, LIMK2, PRKAA1, PTK2B, RPS6KA1, SRC, WEE1,	24
CC(C)S(=O)(=O)c1ccccc1Nc1nc(Nc2ccc(N3CCN(CCOCCOCCNC(=O)CNc4cccc5c4C(=O)N(C4CCC(=O)NC4=O)C5=O)CC3)cc2)ncc1Cl (stereo not drawn) [TL12-186]		AAK1, ABL1, AURKA, AURKB, BLK, BMPR1A, BUB1, BUB1B, CDK10, CDK12, CDK13, CDK17, CDK2, CDK4, CDK5, CDK6, CDK7, CDK9, COQ8A, COQ8B, CSNK1D, CSNK1E,; also recorded: EEF2K, FER, FLT1, GAK, HASPIN, IRAK4, ITK, LCK, LIMK1, LIMK2, MAP3K11, MAP3K21, MAP4K1, MAP4K3, MAPK6, MAPK7, MARK2, MARK4, NEK2, NLK, PDK2, PLK4, PRAG1, PRKAA1, PTK2B, RIOK2, RPS6KA1, SIK2, SRC, STK10, STK17A, STK35, TEC, TNK2, ULK1, ULK3, WEE1, YES1	60
COc1cc(N2CCN(CCOCCOCCNC(=O)CNc3cccc4c3C(=O)N(C3CCC(=O)NC3=O)C4=O)CC2)ccc1Nc1ncc(Cl)c(Nc2ccccc2S(=O)(=O)C(C)C)n1 (stereo not drawn) [TL13-12]		AURKA, FER, PRK2	3
CC(C)S(=O)(=O)c1ccccc1Nc1nc(Nc2ccc(N3CCN(CCOCCOCCC(=O)NCCNc4cccc5c4CN(C4CCC(=O)NC4=O)C5=O)CC3)cc2)ncc1Cl (stereo not drawn) [TL13-97, 3-(2-(2-(4-(4-((5-chloro-4-((2-(isopropylsulfonyl)phenyl)amino)pyrimidin-2-yl)amino)phenyl)piperazin-1-yl)ethoxy)ethoxy)-N-(2-((2-(2,6-dioxopiperidin-3-yl)-1-1722 oxoisoindolin-4-yl)amino)ethyl)propenamide]	AAK1, ABL2, AURKA, AURKB, BLK, BUB1B, CDK13, CDK17, CDK2, CDK4, CDK5. CDK6. CDK7. CDK9. FER, ITK, LCK, LIMK1, LIMK2, MAP3K11, MARK4, PLK4, PRKAA1, RPS6KA1, SRC. STK10, STK38, TEC, TNK2, ULK1, ULK3, and WEE1	AAK1, ABL2, AURKA, AURKB, BLK, BUB1B, CDK13, CDK17, CDK2, CDK4, CDK5, CDK6, CDK7, CDK9, FER, ITK, LCK, LIMK1, LIMK2, MAP3K11, MARK4, PLK4, PRKAA1, RPS6KA1, SRC, STK10, STK38, TEC, TNK2, ULK1, ULK3, WEE1	32
Cc1cc(Nc2ncc(Cl)c(Nc3ccccc3S(=O)(=O)C(C)C)n2)c(OC(C)C)cc1C1CCN(CCOCCOCCNC(=O)CNc2cccc3c2C(=O)N(C2CCC(=O)NC2=O)C3=O)CC1 (stereo not drawn) [TL13-112]		FER, PTK2, RPS6KA1	3
Cc1ccc(C(=O)Nc2ccc(CN3CCN(CCOCCOCCNC(=O)CNc4cccc5c4C(=O)N(C4CCC(=O)NC4=O)C5=O)CC3)c(C(F)(F)F)c2)cc1C#Cc1cnc2cccnn12 (stereo not drawn) [TL13-150]		BLK, CDK5, FER, GAK, IRAK1, LCK, MAP4K2, MAPK14, RIPK1, SRC	10
CC(C)(C)c1cc(NC(=O)Nc2ccc(Oc3ccnc(C(=O)NCCOCCOCCNC(=O)CNc4cccc5c4C(=O)N(C4CCC(=O)NC4=O)C5=O)c3)cc2F)n(-c2ccc3ncccc3c2)n1 (stereo not drawn) [TL13-178]	CDK4, LIMK1, MAP3K20, MAPK14, and MAST3		
NC(=O)c1c(F)cccc1Nc1nc(NC2CCN(S(=O)(=O)CCNC(=O)CCCCCCCCOc3cccc4c3C(=O)N(C3CCC(=O)NC3=O)C4=O)CC2)ncc1Br (stereo not drawn) [TMX-01-160-1]		AURKA, CDK1, CDK12, CDK16, CDK17, CDK2, CDK4, CDK5, CDK6, CDK7, CDK9, MAPK10, MAPK8, MAPK9, RPS6KA1	15
NC(=O)c1c(F)cccc1Nc1nc(Nc2ccc(S(=O)(=O)NCCOCCOCCOCCOCCNc3cccc4c3C(=O)N(C3CCC(=O)NC3=O)C4=O)cc2)ncc1Br (stereo not drawn) [TMX-02-138]		AAKI, AURKA, AURKB, CDK1, CDK12, CDK16, CDK17, CDK2, CDK5, CDK7, CDK9, CLK1, FER, GSK3A, GSK3B, IRAK3, MAPSK11, MAPK8, MAPK9, NUAK1, PRKAA1, PRKAA2, PTK2B, RPS6KA1, RPS6KA3, STK33, STK38, TTK	28
Cc1cc(S(=O)(=O)NCCOCCOCCOCCOCCNc2cccc3c2C(=O)N(C2CCC(=O)NC2=O)C3=O)ccc1Nc1ncc(Br)c(Nc2cccc(F)c2C(N)=O)n1 (stereo not drawn) [TMX-02-172]		AURKA, AURKB, CDK1, CDK2, CDK5, MAPK8, MAPK9, PTK2, RPS6KA1, RPS6KA3, STK33, TTK	12
Cc1cc(Nc2ncc(Br)c(Nc3cccc(F)c3C(N)=O)n2)ccc1S(=O)(=O)NCCOCCOCCOCCOCCNc1cccc2c1C(=O)N(C1CCC(=O)NC1=O)C2=O (stereo not drawn) [TMX-02-174]		AAK1, AURKA, AURKB, CDK1, CDK12, CDK16, CDK17, CDK2, CDK5, CDK7, CDK9, CLK1, FER, GSK3A, GSK3B, IRAK3, MAP3K11, MAPK8, MAPK9, NEK1, NEK3, NEK4, NEK9, NUAK1, PRKAA1, PRKAA2, PTK2, PTK2B, RPS6KA1, RPS6KA3, RPS6KA4, STK33, STK35, STK38, TBK1, TEC, TTK, WEE1	37
Nc1ncc(-c2ccc(S(=O)(=O)N(CCCNC(=O)CCOCCOCCOCCOCCOCCNc3cccc4c3C(=O)N(C3CCC(=O)NC3=O)C4=O)C3CC3)cc2F)cc1-c1ccc2c(c1)CCNC2=O (stereo not drawn) [WH-9533-153, N-(3-((4-(6-amino-5-(1-oxo-1,2,3,4-tetrahydroisoquinolin-6-yl)pyridin-3-yl)-N-cyclopropyl-3-fluorophenyl)sulfonamido)propyl)-1-((2-(2,6-dioxopiperidin-3-yl)-1,3-dioxoisoindolin-4-yl)amino)-3,6,9,12,15-pentaoxaoctadecan-18-amide]		CDK14, CSNK1D, GSK3A, GSK3B, NUAK1, PIM2, STK17B, STK35, STK4	13
